Test results from ChEMBL document CHEMBL1151139, “Bullatacin, bullatacinone, and squamone, a new bioactive acetogenin, from the bark of Annona squamosa” (J Nat Prod, 1990).
≈ marks a conversion by molar mass, not a printed value.

What was measured:
[1] = test system: HT-29; assay: Cytotoxicity against human HT-29 cells; assay type: functional; conditions: read-out: ED50 (the source's name)
[2] = test system: MCF7; assay: Cytotoxicity against human MCF7 cells; assay type: functional; conditions: for EC50: Homo sapiens, MCF7, read-out: ED50 (the source's name)
[3] = test system: A549; assay: Cytotoxicity against human A549 cells; assay type: functional; conditions: for EC50: Homo sapiens, A549, read-out: ED50 (the source's name)
[4] = Toxicity against brine shrimp; assay type: organism-based; conditions: artemia, in vivo; read-out: ED50 (the source's name)
[5] = test system: MCF7; assay: Selectivity index, ratio of IC50 for human A549 cells to IC50 for human MCF7 cells; assay type: functional
[6] = test system: MCF7; assay: Selectivity index, ratio of IC50 for human HT-29 cells to IC50 for human MCF7 cells; assay type: functional

Row | SMILES | EC50 [1] | ED50 [2] | ED50 [3] | EC50 [2] | EC50 [3] | LC50 [4] | Ratio ED50 [5] | Ratio ED50 [6]
1 | CCCCCCCCCC[C@H](O)[C@H]1CC[C@H]([C@H]2CC[C@H]([C@H](O)CCCCCCCCCC[C@@H]3CC(CC(C)=O)C(=O)O3)O2)O1 (some centres undefined) [BULLATACINONE] | < 0.001 µg/mL | <1 ×10⁻⁷ ug/ml | 1.44 ×10⁻⁴ ug/ml |  |  |  |  | 
2 | COc1cccc2c1C(=O)c1c(O)c3c(c(O)c1C2=O)C[C@@](O)(C(=O)CO)C[C@@H]3O[C@H]1C[C@H](N)[C@H](O)[C@H](C)O1 [DOXORUBICIN] | 0.0301 µg/mL (≈ 0.0554 µM) |  |  | 0.029 µg/mL (≈ 0.0534 µM) | 0.00696 µg/mL (≈ 0.0128 µM) |  |  | 
3 | CCCCCCCCCCCC[C@H](O)[C@@H]1CC[C@@H]([C@@H](O)CCCCCC(=O)CCCCC2CC(CC(C)=O)C(=O)O2)O1 (some centres undefined) [SQUAMONE] | 1.5 µg/mL (≈ 2.52 µM) |  |  |  |  | 2.1 µg/mL (≈ 3.53 µM) |  | 
4 | CCCCCCCCCCCC[C@H](O)[C@@H]1CC[C@@H]([C@@H](O)CCCCCC(O)CCCCC2CC(CC(C)O)C(=O)O2)O1 (some centres undefined) [TETRAHYDROSQUAMONE] | 0.298 µg/mL (≈ 0.498 µM) |  |  | 0.00989 µg/mL (≈ 0.0165 µM) | 0.141 µg/mL (≈ 0.235 µM) | 2.7 µg/mL (≈ 4.51 µM) | 100 | 100
